# Measured values published in ChEMBL document CHEMBL1201862, “PubChem BioAssay data set” (2004).
#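 How tested: cells in 96-well plates exposed to compound for 48 hours at five concentrations. GI50 is the concentration that inhibits growth by half.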 Activity calls are given as the source filed them. Rule as the data show it: active = GI50 up to about 1.1 µM and inactive = higher.
# Columns and labels:
# Assay in all cases: DTP human tumour cell line panel, 48 h
# BT-549 = system: BT-549
# CAKI-1 = system: CAKI-1
# CCRF-CEM = system: CCRF-CEM
# COLO 205 = system: COLO 205
# HOP-92 = system: HOP-92
# HT-29 = system: HT-29
# Hs-578T = system: Hs-578T
# IGROV-1 = system: IGROV-1
# MCF7 = system: MCF7
# MDA-MB-435 = system: MDA-MB-435
# NCI-H522 = system: NCI-H522
# NCI/ADR-RES = system: NCI/ADR-RES
# RXF 393 = system: RXF 393
# SF-295 = system: SF-295
# SN12C = system: SN12C
# T47D = system: T47D
# UACC-257 = system: UACC-257
# SNB-75 = system: SNB-75
SMILES,GI50 (BT-549),GI50 (CAKI-1),GI50 (CCRF-CEM),GI50 (COLO 205),GI50 (HOP-92),GI50 (HT-29),GI50 (Hs-578T),GI50 (IGROV-1),GI50 (MCF7),GI50 (MDA-MB-435),GI50 (NCI-H522),GI50 (NCI/ADR-RES),GI50 (RXF 393),GI50 (SF-295),GI50 (SN12C),GI50 (T47D),GI50 (UACC-257),GI50 (SNB-75)
CCCCCCc1nn2c(-c3ccncc3)nnc2s1,> 10 µM (inactive),> 10 µM (inactive),> 10 µM (inactive),> 10 µM (inactive),8.65 µM (inactive),> 10 µM (inactive),> 10 µM (inactive),> 10 µM (inactive),> 10 µM (inactive),> 10 µM (inactive),> 10 µM (inactive),> 10 µM (inactive),> 10 µM (inactive),> 10 µM (inactive),> 10 µM (inactive),> 10 µM (inactive),> 10 µM (inactive),–
CC1=NN(C(=O)CC(=O)Nc2cccc(C)c2)C(=O)C1/N=N\c1ccc(S(=O)(=O)c2ccc(/N=N/C3C(=O)N(C(=O)CC(=O)Nc4cccc(C)c4)N=C3C)cc2)cc1 (stereo not drawn),> 100 µM (inactive),> 100 µM (inactive),> 100 µM (inactive),> 100 µM (inactive),> 100 µM (inactive),> 100 µM (inactive),> 100 µM (inactive),> 100 µM (inactive),> 100 µM (inactive),> 100 µM (inactive),> 100 µM (inactive),> 100 µM (inactive),> 100 µM (inactive),> 100 µM (inactive),> 100 µM (inactive),> 100 µM (inactive),> 100 µM (inactive),> 100 µM (inactive)
CC(=O)OCC1OC(O[C@@H]2C[C@H]3C(C)(C)[C@H](OC(C)=O)CC[C@]3(C)[C@H]3CC[C@@]45C[C@H](O)C[C@H](C)[C@@H]4CC=C5[C@@]32C)C(O)C(O)C1O (stereo partly drawn),5.3 µM (inactive),11.6 µM (inactive),2.81 µM (inactive),1.82 µM (inactive),4.01 µM (inactive),1.91 µM (inactive),4.6 µM (inactive),2.71 µM (inactive),4.04 µM (inactive),3.27 µM (inactive),2.72 µM (inactive),16 µM (inactive),2.11 µM (inactive),3.66 µM (inactive),4.08 µM (inactive),3.43 µM (inactive),4.72 µM (inactive),3.16 µM (inactive)
O=C1/C(=C/c2ccc([N+](=O)[O-])cc2)C(=O)N(c2ccccc2)C1c1ccccc1 (stereo not drawn),> 10 µM (inactive),> 10 µM (inactive),> 10 µM (inactive),> 10 µM (inactive),–,> 10 µM (inactive),> 10 µM (inactive),> 10 µM (inactive),> 10 µM (inactive),> 10 µM (inactive),> 10 µM (inactive),> 10 µM (inactive),> 10 µM (inactive),> 10 µM (inactive),> 10 µM (inactive),> 10 µM (inactive),> 10 µM (inactive),> 10 µM (inactive)
CCN(CC)CCOc1ccc(N2Cc3cc(OC)c(OC)cc3C2=O)cc1,> 100 µM (inactive),> 100 µM (inactive),> 100 µM (inactive),> 100 µM (inactive),> 100 µM (inactive),> 100 µM (inactive),> 100 µM (inactive),> 100 µM (inactive),> 100 µM (inactive),> 100 µM (inactive),> 100 µM (inactive),> 100 µM (inactive),> 100 µM (inactive),> 100 µM (inactive),> 100 µM (inactive),> 100 µM (inactive),> 100 µM (inactive),–
N#CC(C#N)=C1C(=O)NC(N)=C1C#N,> 100 µM (inactive),> 100 µM (inactive),> 100 µM (inactive),> 100 µM (inactive),> 100 µM (inactive),> 100 µM (inactive),> 100 µM (inactive),> 100 µM (inactive),> 100 µM (inactive),> 100 µM (inactive),> 100 µM (inactive),> 100 µM (inactive),> 100 µM (inactive),> 100 µM (inactive),> 100 µM (inactive),> 100 µM (inactive),> 100 µM (inactive),–
O=C1C(N2CCOCC2)=C(Cl)C(=O)c2ncccc21,> 10 µM (inactive),> 10 µM (inactive),0.524 µM (active),2.24 µM (inactive),1.5 µM (inactive),> 7.89 µM (inactive),3.99 µM (inactive),> 8.53 µM (inactive),1.81 µM (inactive),1.73 µM (inactive),1.45 µM (inactive),8.49 µM (inactive),1.55 µM (inactive),> 10 µM (inactive),1.75 µM (inactive),1.99 µM (inactive),1.73 µM (inactive),> 10 µM (inactive)
CN1CCCC2C(c3ccccc3)C(C3=NCCCC3)C(c3ccccc3)CC21 (stereo not drawn),33.3 µM (inactive),> 100 µM (inactive),35.2 µM (inactive),26.4 µM (inactive),85.9 µM (inactive),19.5 µM (inactive),21.7 µM (inactive),50 µM (inactive),56.6 µM (inactive),19.5 µM (inactive),17 µM (inactive),53.8 µM (inactive),23.4 µM (inactive),49.2 µM (inactive),> 100 µM (inactive),> 100 µM (inactive),19.1 µM (inactive),13.6 µM (inactive)
Clc1ccc(C(Cc2cccc(Cl)c2)c2c(Cl)nc(N3CCNCC3)nc2Cl)cc1 (stereo not drawn),20.6 µM (inactive),12.1 µM (inactive),15.3 µM (inactive),2.9 µM (inactive),13.9 µM (inactive),> 100 µM (inactive),19.8 µM (inactive),69.2 µM (inactive),10.8 µM (inactive),16.7 µM (inactive),14.8 µM (inactive),18 µM (inactive),–,16.8 µM (inactive),–,16.4 µM (inactive),18.8 µM (inactive),13.3 µM (inactive)
CCOC(=O)CCC(NC(=O)c1ccc(Nc2nc3cc(C(F)(F)F)ccc3nc2-c2ccccc2)cc1)C(=O)OCC (stereo not drawn),25.2 µM (inactive),20.5 µM (inactive),27.8 µM (inactive),22.4 µM (inactive),17.7 µM (inactive),25.8 µM (inactive),19.7 µM (inactive),14.7 µM (inactive),20.6 µM (inactive),28.8 µM (inactive),–,19.5 µM (inactive),> 100 µM (inactive),33.4 µM (inactive),19.3 µM (inactive),16.4 µM (inactive),22.8 µM (inactive),15.2 µM (inactive)
CC1(C)OC[C@@H](/C=C\CCO[Si](c2ccccc2)(c2ccccc2)C(C)(C)C)N1C(=O)c1ccccc1,18.5 µM (inactive),9.4 µM (inactive),6.21 µM (inactive),8.32 µM (inactive),14.4 µM (inactive),4.14 µM (inactive),12.5 µM (inactive),28.6 µM (inactive),6.32 µM (inactive),13.2 µM (inactive),3.61 µM (inactive),9.14 µM (inactive),6.84 µM (inactive),13.1 µM (inactive),11.1 µM (inactive),4.06 µM (inactive),3.49 µM (inactive),> 100 µM (inactive)
CC(C)=CCC[C@@H](C)/C=C/C=C(\C)C(=O)CC[C@@H]1CC[N@+]2(C)CCCC[C@H]12,65.6 µM (inactive),> 100 µM (inactive),–,81.3 µM (inactive),6.44 µM (inactive),–,96.4 µM (inactive),55.1 µM (inactive),> 100 µM (inactive),> 100 µM (inactive),35 µM (inactive),> 100 µM (inactive),35.1 µM (inactive),> 100 µM (inactive),> 100 µM (inactive),> 100 µM (inactive),> 100 µM (inactive),49.2 µM (inactive)
O=S(=O)(O)c1ccc2cccc(/N=N\c3c(O)ccc4ccccc34)c2c1,> 100 µM (inactive),> 100 µM (inactive),> 100 µM (inactive),> 100 µM (inactive),> 100 µM (inactive),–,> 100 µM (inactive),> 100 µM (inactive),> 100 µM (inactive),> 100 µM (inactive),> 100 µM (inactive),> 100 µM (inactive),> 100 µM (inactive),> 100 µM (inactive),> 100 µM (inactive),> 100 µM (inactive),> 100 µM (inactive),> 100 µM (inactive)
COc1cc2c(cc1OC)C(=O)/C(=C/c1cc(C)cc(C)c1)C2,11.3 µM (inactive),–,0.0514 µM (active),0.0735 µM (active),3.29 µM (inactive),0.0385 µM (active),0.538 µM (active),0.0908 µM (active),0.385 µM (active),< 0.0146 µM (active),0.0451 µM (active),0.065 µM (active),0.0736 µM (active),< 0.0301 µM (active),0.318 µM (active),0.883 µM (active),0.561 µM (active),0.211 µM (active)
COc1ccc2c(c1)/C(=C\c1c(Cl)n(-c3ccccc3)c3ccccc13)C(=O)N2,10.7 µM (inactive),4.08 µM (inactive),3.85 µM (inactive),3.61 µM (inactive),2.08 µM (inactive),3.48 µM (inactive),0.479 µM (active),4.12 µM (inactive),3.45 µM (inactive),1.64 µM (inactive),–,2.49 µM (inactive),2.45 µM (inactive),3.91 µM (inactive),13.6 µM (inactive),5.94 µM (inactive),8.97 µM (inactive),6.59 µM (inactive)
